From the NIST ThermoML archive (doi:10.1016/j.fluid.2018.08.012)
Several values for one entry are separate records, joined by “and”; a condition that tells them apart may be missing. Equal values may be shown once. ± gives the expanded uncertainty stated by the source.

Assay: mn = molality of the nth substance listed, in mol/kg
Conditions: Fluid (supercritical or subcritical phases), Vibrating tube method, m1 = 0.2392

SMILES: O=S=O [sulfur dioxide] + O=C=O
- mass density (324.07 K, 2523.7 kPa): 45.99 ± 0.08 kg/m3
- mass density (324.07 K, 2524.8 kPa): 46.06 ± 0.08 kg/m3
- mass density (324.07 K, 5037.9 kPa): 106.08 ± 0.2 kg/m3
- mass density (324.07 K, 5047.5 kPa): 106.41 ± 0.2 kg/m3
- mass density (324.07 K, 7549.5 kPa): 197.2 ± 0.56 kg/m3
- mass density (324.07 K, 7550.3 kPa): 197.25 ± 0.56 kg/m3
- mass density (324.07 K, 10068 kPa): 396.72 ± 1.2 kg/m3
- mass density (324.07 K, 10080 kPa): 398.55 ± 1.2 kg/m3
- mass density (324.07 K, 12568 kPa): 620.49 ± 1.4 kg/m3 and 620.47 ± 1.4 kg/m3
- mass density (324.07 K, 15086 kPa): 705.24 ± 1.1 kg/m3
- mass density (324.07 K, 15087 kPa): 705.32 ± 1.1 kg/m3
- mass density (324.07 K, 17615 kPa): 754.18 ± 0.94 kg/m3
- mass density (324.07 K, 20140 kPa): 788.89 ± 0.83 kg/m3 and 788.93 ± 0.83 kg/m3
- mass density (324.07 K, 22662 kPa): 816.06 ± 0.76 kg/m3
- mass density (324.07 K, 22664 kPa): 816.05 ± 0.76 kg/m3
- mass density (324.07 K, 25179 kPa): 838.47 ± 0.72 kg/m3
- mass density (324.07 K, 25185 kPa): 838.49 ± 0.72 kg/m3
- mass density (324.07 K, 27695 kPa): 857.63 ± 0.69 kg/m3
- mass density (324.07 K, 27705 kPa): 857.68 ± 0.69 kg/m3
- mass density (324.07 K, 30187 kPa): 874.31 ± 0.66 kg/m3
- mass density (324.07 K, 30220 kPa): 874.51 ± 0.66 kg/m3
- mass density (324.07 K, 32689 kPa): 889.28 ± 0.66 kg/m3
- mass density (324.07 K, 32729 kPa): 889.51 ± 0.66 kg/m3
- mass density (324.07 K, 35178 kPa): 902.77 ± 0.69 kg/m3
- mass density (324.07 K, 35212 kPa): 902.97 ± 0.69 kg/m3
- mass density (349.39 K, 2532.7 kPa): 41.96 ± 0.08 kg/m3
- mass density (349.39 K, 2537.9 kPa): 42.01 ± 0.08 kg/m3
- mass density (349.39 K, 5043.8 kPa): 91.74 ± 0.15 kg/m3
- mass density (349.39 K, 5046.4 kPa): 91.91 ± 0.15 kg/m3
- mass density (349.39 K, 7518.6 kPa): 153.18 ± 1.6 kg/m3
- mass density (349.39 K, 7555.2 kPa): 154.4 ± 1.6 kg/m3
- mass density (349.39 K, 10069 kPa): 236.57 ± 0.65 kg/m3
- mass density (349.39 K, 10075 kPa): 236.62 ± 0.65 kg/m3
- mass density (349.39 K, 12580 kPa): 346.19 ± 1.1 kg/m3
- mass density (349.39 K, 12586 kPa): 346.44 ± 1.1 kg/m3
- mass density (349.39 K, 15085 kPa): 467.39 ± 1.3 kg/m3
- mass density (349.39 K, 15089 kPa): 467.53 ± 1.3 kg/m3
- mass density (349.39 K, 17619 kPa): 564.01 ± 1.3 kg/m3
- mass density (349.39 K, 17622 kPa): 564.12 ± 1.3 kg/m3
- mass density (349.39 K, 20144 kPa): 630.6 ± 1.1 kg/m3
- mass density (349.39 K, 20146 kPa): 630.67 ± 1.1 kg/m3
- mass density (349.39 K, 22669 kPa): 678.62 ± 1.1 kg/m3
- mass density (349.39 K, 22671 kPa): 678.72 ± 1.1 kg/m3
- mass density (349.39 K, 25189 kPa): 715.52 ± 0.99 kg/m3
- mass density (349.39 K, 25190 kPa): 715.6 ± 0.99 kg/m3
- mass density (349.39 K, 27706 kPa): 745.39 ± 0.95 kg/m3
- mass density (349.39 K, 27707 kPa): 745.51 ± 0.95 kg/m3
- mass density (349.39 K, 30211 kPa): 770.4 ± 0.92 kg/m3
- mass density (349.39 K, 30216 kPa): 770.37 ± 0.92 kg/m3
- mass density (349.39 K, 32707 kPa): 791.84 ± 0.9 kg/m3
- mass density (349.39 K, 32708 kPa): 791.77 ± 0.9 kg/m3
- mass density (349.39 K, 35200 kPa): 810.62 ± 0.91 kg/m3
- mass density (349.39 K, 35202 kPa): 810.71 ± 0.91 kg/m3
- mass density (375.06 K, 2549.7 kPa): 38.37 ± 0.07 kg/m3
- mass density (375.06 K, 2555.7 kPa): 38.44 ± 0.07 kg/m3
- mass density (375.06 K, 5060.6 kPa): 81.6 ± 0.13 kg/m3
- mass density (375.06 K, 5068.6 kPa): 81.91 ± 0.13 kg/m3
- mass density (375.06 K, 7564.3 kPa): 131.73 ± 0.23 kg/m3
- mass density (375.06 K, 7579.7 kPa): 132.31 ± 0.23 kg/m3
- mass density (375.06 K, 10049 kPa): 189.67 ± 0.39 kg/m3
- mass density (375.06 K, 10080 kPa): 190.27 ± 0.39 kg/m3
- mass density (375.06 K, 12595 kPa): 258.2 ± 0.62 kg/m3
- mass density (375.06 K, 12612 kPa): 259 ± 0.62 kg/m3
- mass density (375.06 K, 15080 kPa): 333.08 ± 0.88 kg/m3
- mass density (375.06 K, 15093 kPa): 333.81 ± 0.88 kg/m3
- mass density (375.06 K, 17617 kPa): 411.4 ± 1.1 kg/m3
- mass density (375.06 K, 17623 kPa): 411.26 ± 1.1 kg/m3
- mass density (375.06 K, 20142 kPa): 482.1 ± 1.3 kg/m3
- mass density (375.06 K, 20148 kPa): 481.92 ± 1.3 kg/m3
- mass density (375.06 K, 22667 kPa): 541.64 ± 1.3 kg/m3
- mass density (375.06 K, 22672 kPa): 541.46 ± 1.3 kg/m3
- mass density (375.06 K, 25185 kPa): 590.31 ± 1.3 kg/m3
- mass density (375.06 K, 25191 kPa): 590.18 ± 1.3 kg/m3
- mass density (375.06 K, 27702 kPa): 630.33 ± 1.2 kg/m3
- mass density (375.06 K, 27708 kPa): 630.2 ± 1.2 kg/m3
- mass density (375.06 K, 30214 kPa): 663.73 ± 1.2 kg/m3
- mass density (375.06 K, 30222 kPa): 663.67 ± 1.2 kg/m3
- mass density (375.06 K, 32714 kPa): 692.09 ± 1.2 kg/m3
- mass density (375.06 K, 32726 kPa): 692.34 ± 1.2 kg/m3
- mass density (375.06 K, 35206 kPa): 716.75 ± 1.2 kg/m3
- mass density (375.06 K, 35223 kPa): 717.02 ± 1.2 kg/m3
- mass density (399.99 K, 2560.5 kPa): 35.13 ± 0.07 kg/m3
- mass density (399.99 K, 2564.5 kPa): 35.68 ± 0.07 kg/m3
- mass density (399.99 K, 5074.4 kPa): 74.46 ± 0.12 kg/m3
- mass density (399.99 K, 5079.5 kPa): 74.06 ± 0.12 kg/m3
- mass density (399.99 K, 7580.3 kPa): 116.91 ± 0.2 kg/m3
- mass density (399.99 K, 7584.9 kPa): 117.53 ± 0.2 kg/m3
- mass density (399.99 K, 10090 kPa): 164.56 ± 0.32 kg/m3
- mass density (399.99 K, 10112 kPa): 164.41 ± 0.32 kg/m3
- mass density (399.99 K, 12594 kPa): 215.96 ± 0.47 kg/m3
- mass density (399.99 K, 12608 kPa): 216.99 ± 0.48 kg/m3
- mass density (399.99 K, 15081 kPa): 271.09 ± 0.66 kg/m3
- mass density (399.99 K, 15090 kPa): 272.1 ± 0.66 kg/m3
- mass density (399.99 K, 17615 kPa): 329.58 ± 0.86 kg/m3
- mass density (399.99 K, 17617 kPa): 330.16 ± 0.86 kg/m3
- mass density (399.99 K, 20141 kPa): 387.34 ± 1.1 kg/m3 and 386.76 ± 1.1 kg/m3
- mass density (399.99 K, 22663 kPa): 440.42 ± 1.2 kg/m3
- mass density (399.99 K, 22665 kPa): 441.02 ± 1.2 kg/m3
- mass density (399.99 K, 25183 kPa): 488.79 ± 1.4 kg/m3
- mass density (399.99 K, 25184 kPa): 489.39 ± 1.4 kg/m3
- mass density (399.99 K, 27700 kPa): 532.13 ± 1.4 kg/m3
- mass density (399.99 K, 27701 kPa): 531.53 ± 1.4 kg/m3
- mass density (399.99 K, 30211 kPa): 569.48 ± 1.4 kg/m3
- mass density (399.99 K, 30212 kPa): 568.87 ± 1.4 kg/m3
- mass density (399.99 K, 32703 kPa): 601.95 ± 1.4 kg/m3
- mass density (399.99 K, 32723 kPa): 601.61 ± 1.4 kg/m3
- mass density (399.99 K, 35199 kPa): 630.66 ± 1.4 kg/m3
- mass density (399.99 K, 35210 kPa): 630.23 ± 1.4 kg/m3
